Laboratory results from patent US10695325B2, “Compounds and methods for treating an epileptic disorder” (priority 2013, dated 2020).
Where a name gives a salt, the structure may show the parent alone. Read-outs that look alike come from different tables or passages of the source.

Tests used:
[1] = tested on: scn1Lab mutant zebrafish; assay type: in vivo, Danio rerio (zebrafish); settings: for swim activity / seizure behavior, third trial: 100 μM; for inhibition of spontaneous seizure behavior, initial screen: 667 μM
[2] = tested on: MES-induced seizure model; assay: MES-induced seizure model; assay type: in vivo, mice; settings: for ED50, MES: mice IP, 0.5 hrs
[3] = tested on: scMET model; assay: scMET model; assay type: in vivo, mice; settings: for N/F (animals protected over tested): IP quantification, 0.5 h
[4] = tested on: 6 Hz (32 mA) model; assay: 6 Hz (32 mA) model; assay type: in vivo, mice; settings: identification screen IP
Experimental: ASP469016 was tested in our initial T31 (MES/scMET/Tox) screen at 30, 100, and 300 mg/kg. The data for each condition is presented as N/F, where N equals the number of animals protected and F equals the number of animals tested. For tests of toxicity (TOX), N equals the number of animals displaying toxic effects and F equals the number of animals tested. Codes in the C column refer to comments from the technicians performing the experiment and are defined in the comments section if necessary. Any deaths are noted. As shown in the 6 Hz (32 mA) model only 1/4 animals were protected at 100 mg/kg at 30 min. In the MES-induced seizure model only 1/4 animals were protected at 100 and 300 mg/kg at 30 min. No toxicity (unable to grasp rotorod) or activity was detected at any other dose or time point tested.

[5] = tested on: mice; settings: mouse, in vivo
[6] = tested on: scn1Lab mutant zebrafish; assay type: in vivo, Danio rerio (zebrafish); settings: for forebrain electrographic seizure activity after the locomotion assay: 100 μM
[7] = tested on: wild-type larvae; assay: DMSO toxicity in larvae; settings: dilutions between 0.01 and 100%; n=12 fish per concentration
[8] = tested on: WT zebrafish exposed to 15 mM pentylenetetrazole; assay: PTZ-induced seizure behavior, locomotion assay; assay type: in vivo; settings: 100 μM, n=10
[9] = 1 mM (KD: 48 hr exposure), 5 dpf

CC(C)CCCC(C)NC(C)C (centres unmarked) [iproheptine]
convulsive behavior (H1 antihistamines) ([1]; locomotor seizure assay, 5 dpf): failed to suppress convulsive behavior

Clc1ccc(Cn2c(CN3CCCC3)nc3ccccc32)cc1 [ASP469016]
activity during determination of the TPE in the MES model ([2]; 300 mg/kg starting dose): no activity | activity in the qualitative MES screen ([2]; 100 and 300 mg/kg doses): some activity | N/F (animals protected over tested) ([2]; IP quantification, 350 mg/kg, 0.5 h): 0/8 | N/F (animals protected over tested) ([2]; IP quantification, 400 mg/kg, 0.5 h): 7/8 | N/F (animals protected over tested) ([2]; IP quantification, 500 mg/kg, 0.5 h): 4/4 | N/F (animals protected over tested) ([2]; identification screen IP, 30 mg/kg, 0.5 h): 0/4 | N/F (animals protected over tested) ([2]; identification screen IP, 30 mg/kg, 2.0 h): 0/4 | N/F (animals protected over tested) ([2]; identification screen IP, 100 mg/kg, 0.5 h): 1/4 | N/F (animals protected over tested) ([2]; identification screen IP, 100 mg/kg, 2.0 h): 0/4 | N/F (animals protected over tested) ([2]; identification screen IP, 300 mg/kg, 0.5 h): 1/4 | N/F (animals protected over tested) ([2]; identification screen IP, 300 mg/kg, 2.0 h): 0/4 | ED50, MES [2]: < 400 mg/kg | ED50, MES ([2]; listed as 469016): <400.0 mg/kg | N/F (animals protected over tested) ([2]; time to peak effect, 300 mg/kg, 0.25 h): 0/4 | N/F (animals protected over tested) ([2]; time to peak effect, 300 mg/kg, 0.5 h): 0/4 | N/F (animals protected over tested) ([2]; time to peak effect, 300 mg/kg, 1.0 h): 0/4 | N/F (animals protected over tested) ([2]; time to peak effect, 300 mg/kg, 2.0 h): 0/4 | N/F (animals protected over tested) ([2]; time to peak effect, 300 mg/kg, 4.0 h): 0/4 | N/F (animals protected over tested) ([2]; time to peak effect, 500 mg/kg, 0.25 h): 2/4 | N/F (animals protected over tested) ([2]; time to peak effect, 500 mg/kg, 1.0 h): 0/4 | N/F (animals protected over tested) ([2]; time to peak effect, 500 mg/kg, 2.0 h): 0/4 | N/F (animals protected over tested) ([2]; time to peak effect, 500 mg/kg, 4.0 h): 0/4 | N/F (animals protected over tested) ([3]; 200 mg/kg): 0/8 | N/F (animals protected over tested) ([3]; 250 mg/kg): 0/4 | ED50, SCMET ([3]; mice IP, 0.5 hrs): >250.0 mg/kg | activity in the scMET model ([3]; quantitative testing): No activity | N/F (animals protected over tested) ([4]; 30 mg/kg, 0.5 h): 0/4 | N/F (animals protected over tested) ([4]; 30 mg/kg, 2.0 h): 0/4 | N/F (animals protected over tested) ([4]; 100 mg/kg, 0.5 h): 1/4 | N/F (animals protected over tested) ([4]; 100 mg/kg, 2.0 h): 0/4 | N/F (animals protected over tested) ([4]; 300 mg/kg, 0.5 h): 0/4 | N/F (animals protected over tested) ([4]; 300 mg/kg, 2.0 h): 0/4 | activity or toxicity (unable to grasp rotorod) [5]: No activity or toxicity | N/F (animals toxic over tested) ([5]; 400 mg/kg): 0/8 | N/F (animals toxic over tested) ([5]; 500 mg/kg): 0/4 | ED50, TOX ([5]; ip): >500 mg/kg | N/F (animals toxic over tested) ([5]; ip, 30 mg/kg): 0/8 | N/F (animals toxic over tested) ([5]; ip, 100 mg/kg): 0/8 | N/F (animals toxic over tested) ([5]; ip, 300 mg/kg): 0/8 | N/F (animals toxic over tested) ([5]; ip, 500 mg/kg): 0/4

C=CC(N)CCC(=O)O (centres unmarked) [vigabatrin]
Epileptiform event frequency (burst frequency; interictal- and ictal-like discharges) ([6]; zebrafish, in vivo): increased burst frequency | fish in which epileptiform activity became more frequent ([6]; zebrafish, in vivo): 6 of 7

C[S+](C)[O-] [DMSO]
lethal DMSO dilution [7]: > 25%

CC(=O)[C@H]1CC[C@H]2[C@@H]3CC[C@H]4C[C@](C)(O)CC[C@]4(C)[C@H]3CC[C@]12C [ganaxolone]
effect on locomotor seizure behavior [1, 9]: effective

Cc1ccc(C(=O)C(C)CN2CCCCC2)cc1 (centres unmarked) [tolperisone HCl]
forebrain electrographic seizure activity after the locomotion assay [6]: electrographic seizure events were still observed | swim activity / seizure behavior, third trial [1]: reduced swim activity | seizure-induced swim activity and mean velocity, re-test ([1]; zebrafish, in vivo): effective in reducing seizure-induced swim activity and mean velocity

O=C(CCCl)NCc1ccccc1 [beclamide]
inhibition of spontaneous seizure behavior, initial screen [1]: ineffective

C#CCN(C)CCCOc1ccc(Cl)cc1Cl [clorgiline HCl]
forebrain electrographic seizure activity after the locomotion assay [6]: electrographic seizure events were still observed | swim activity / seizure behavior, third trial [1]: reduced swim activity | seizure-induced swim activity and mean velocity, re-test ([1]; zebrafish, in vivo): effective in reducing seizure-induced swim activity and mean velocity

CN1C(=O)CN=C(c2ccccc2)c2cc(Cl)ccc21 [diazepam]
fractional time spent seizing ([6]; 1 mM bath applied, 5-6 dpf, vs baseline): reduced | Epileptiform event frequency (burst frequency; interictal- and ictal-like discharges) ([6]; 1 mM bath applied, agar-embedded mutants 5-6 dpf, vs baseline, 7 fish per drug): reduced | effect on locomotor seizure behavior [1, 9]: effectively inhibited seizure behavior

CCC1(C)CC(=O)NC1=O (centres unmarked) [ethosuximide]
fish in which epileptiform activity became more frequent ([6]; zebrafish, in vivo): 4 of 7 | effect on locomotor seizure behavior ([1]; zebrafish, in vivo): increased seizure behavior

CC(C)(C)C(O)/C=C/c1ccc2c(c1)OCO2 (centres unmarked) [stiripentol]
Epileptiform event frequency (burst frequency; interictal- and ictal-like discharges) ([6]; zebrafish, in vivo): reduced | fractional time spent seizing ([6]; zebrafish, in vivo): reduced | effect on locomotor seizure behavior ([1]; zebrafish, in vivo): effectively inhibited seizure behavior

Nc1nnc(-c2cccc(Cl)c2Cl)c(N)n1 [lamotrigine]
effect on locomotor seizure behavior ([1]; zebrafish, in vivo): no effect

NC(=O)N1c2ccccc2C=Cc2ccccc21 [carbamazepine]
Epileptiform event frequency (burst frequency; interictal- and ictal-like discharges) ([6]; zebrafish, in vivo): increased burst frequency | fish in which epileptiform activity became more frequent ([6]; zebrafish, in vivo): 2 of 7

NCC(O)CC(=O)O (centres unmarked) [aminohydroxybutyric acid]
inhibition of spontaneous seizure behavior, initial screen ([1]; 5 dpf, 6-12 fish): ineffective

CN1CCc2c(c3ccccc3n2Cc2ccccc2)C1.CN1CCc2c(c3ccccc3n2Cc2ccccc2)C1.O=S(=O)(O)c1cccc2c(S(=O)(=O)O)cccc12 [mebhydrolin napthalenesulfonate]
convulsive behavior (H1 antihistamines) ([1]; zebrafish, in vivo): failed to suppress convulsive behavior

CC(=O)Nc1nnc(S(N)(=O)=O)s1 [Acetazolamide]
effect on locomotor seizure behavior ([1]; zebrafish, in vivo): increased seizure behavior

CC[C@@H](C(N)=O)N1CCCC1=O [levetiracetam]
effect on locomotor seizure behavior ([1]; zebrafish, in vivo): no effect

CN1CCC(=C2c3ccccc3Sc3ccccc32)CC1 [pimethixene maleate]
convulsive behavior (H1 antihistamines) ([1]; zebrafish, in vivo): failed to suppress convulsive behavior

CCNC1(c2cccs2)CCCCC1=O (centres unmarked) [tiletamine]
inhibition of spontaneous seizure behavior, initial screen ([1]; 5 dpf, 6-12 fish): ineffective

[Br-].[K+] [potassium bromide]
Epileptiform event frequency (burst frequency; interictal- and ictal-like discharges) ([6]; zebrafish, in vivo): reduced | fractional time spent seizing ([6]; zebrafish, in vivo): reduced | effect on locomotor seizure behavior ([1]; zebrafish, in vivo): effectively inhibited seizure behavior

Clc1ccc(Cn2c(CN3CCCC3)nc3ccccc32)cc1 [clemizole]
forebrain electrographic seizure activity after the locomotion assay [6]: effective in suppressing spontaneous seizure activity | burst duration ([6]; n=7): 154 ± 127 ms | burst frequency ([6]; n=7): 0.2±0.01 bursts/min | fractional time spent seizing ([6]; n=7): 0.03±0.02% | swim activity / seizure behavior, third trial [1]: effective in suppressing spontaneous seizure activity | seizure behavior in the locomotion assay ([1]; n=33): no significant effect | seizure-induced swim activity and mean velocity, re-test ([1]; zebrafish, in vivo): effective in reducing seizure-induced swim activity and mean velocity | PTZ-induced seizure behavior [8]: effective in reducing seizure behavior
